In patent US7235534B2, “Antisense strategy to modulate estrogen receptor response (ER α and/or ER β )” (Institut de Cardiologie de Montreal, priority 2001, dated 2007):

Tests used:
p38 MAPK = assay: Western blot of p38 MAPK phosphorylation in PAEC; assay type: cell-based, porcine; conditions: for inhibition of p38 MAPK phosphorylation induced by a 30 minutes treatment with 17βE: antagonist 10^−7M 5 min prior to 17βE 10^−8M
Experimental: Confluent PAEC and PSMC were starved for 7 hours in DMEM and antibiotics. Culture medium was removed, and cells were rinsed twice with ice-cold DMEM. PSMC were incubated on ice in DMEM with or without 17βE (10^−8M) for 30 min, incubated at 37° C. for 5, 10, 15 and 30 min, then brought back on ice. Cell were then rinsed with cold DMEM, incubated on ice in DMEM, bovine serum albumin (1 mg/ml), PDGF-BB (10 ng/ml) for 30 min, incubated at 37° C. for 5 min, and then brought back on ice. PAEC were incubated on ice in DMEM with or without 17βE (10^−7M) for 30 min, then incubated at 37° C. for 5, 10, 15 and 30 min and brought back on ice. […] Total proteins were prepared by the addition of 500 μl of lysis buffer containing phenylmethylsulfonyl fluoride 1 mM, leupeptin 10 μg/ml, aprotinin 30 μg/ml, and NaVO3 1 mM (Sigma). Plates were incubated at 4° C. for 30 min and scraped, and the protein concentration was determined with a Bio-Rad protein kit (Bio-Rad, Hercules, Calif.). Same protein quantity for each cell type and condition were dissolved in Laemmli's buffer, boiled for 5 min in reducing conditions, separated by a 10% gradient SDS-PAGE (Protean II kit; Bio-Rad), and transblotted onto a 0.45-μm polyvinylidene difluoride membranes (Millipore Corp., Bedford, Mass.). The membranes were blocked in 5% Blotto-TTBS (5% nonfat dry milk; Bio-Rad), 0.05% Tween 20, 0.15 M NaCl, 25 mM Tris-HCl, pH 7.5) for 1 h at room temperature with gentle agitation and incubated overnight at 4° C. in 0.5% Blotto-TTBS with the addition of an anti-phospho p42/44 MAPK or an anti-phospho p38 MAPK rabbit polyclonal antiserums (α-pp42/44; dilution of 1:10 000, and α-pp38; dilution 1:5000, New England BioLabs, Beverly, Mass.). Membranes were washed with TTBS, and incubated at room temperature with an anti-rabbit IgG antibody coupled to horseradish peroxidase (dilution 1:10 000–1:20 000, Santa Cruz Biotechnology, Santa Cruz, Calif.) in 0.5% Blotto-TTBS for 30 min. […] Kaleidoscope molecular weight and SDS-plyacrylamide gel electrophoresis broad range marker proteins (Bio-Rad) were used as standards for SDS-plyacrylamide gel electrophoresis. Digital image densitometry (PDI Bioscience, Aurora, ON) was performed on x-ray film to determine relative percentages of p42/44 and p38 MAPK phosphorylation.
Confluent PAEC and PSMC were preteated with or without antisense sequences as described above for Western Blot analysis. Cells were rinsed twice with ice-cold DMEM. PSMC and PAEC were stimulated with or without 17βE (10^−8 mol/L) as previously described (Geraldes P). Briefly, PSMC were incubated on ice in DMEM with or without 17βE (10^−8 mol/L) for 30 minutes, incubated at 37° C. for 30 minutes, then brought back on ice. Cells were then rinsed with cold DMEM, incubated on ice in DMEM, bovine serum albumin (1 mg/mL), PDGF-BB (10 ng/mL) for 30 minutes, incubated at 37° C. for 5 and 30 minutes, and then brought back on ice. PAEC were incubated on ice in DMEM with or without 17βE (10^−8 mol/L) for 30 minutes, then incubated at 37° C. for 5 and 30 minutes and brought back on ice. Total proteins were prepared-by the addition of 500 μL of lysis buffer, incubated at 4° C. for 30 minutes and scraped to collect the proteins. Same quantity of protein was separated by a 10% gradient SDS-PAGE (Protean II kit; Bio-Rad), and transblotted onto a 0.45-μm polyvinylidene difluoride membranes (Millipore Corp.). […]

[1] = test system: Porcine smooth muscle cells (PSMC); assay: Chemotactic assay on PSMC (modified Boyden chamber); assay type: cell-based; conditions: for reversal of the anti-chemotactic effect of 17βE on PSMC: antagonist 10^−7M before 17βE 10^−8M, PDGF-BB 10 ng/ml
Experimental: Cell migration was evaluated using a modified Boyden 48-well microchamber kit (NeuroProbe, Cabin John, MD.). Near confluent EC and PSMC were rinsed with DMEM and trypsinized. Cells were resuspended in DMEM, 5% FBS, and antibiotics, and a cell count was obtained. […] ER antagonists were added 5 minutes before 17βE. Cells were harvested by trypsinization and resuspended in DMEM, 1% FBS, and antibiotics at a concentration of 5×10^5 cells/ml. […] The two sections of the system were separated by a porous polycarbonate filter (5-μm pores), pre-treated with a gelatine solution (1.5 mg/ml), and assembled. Five hours post incubation at 37° C., the nonmigrated cells were scraped with a plastic policeman, and the migrated cells were stained using a Quick-Diff solution. The filter was then mounted on a glass slide, and migrated cells were counted using a microscope adapted to a video camera to obtain a computer-digitized image.
Cell migration was evaluated using a modified Boyden 48-well microchamber kit (NeuroProbe, Cabin John, MD.). Near confluent PAEC and PSMC were rinsed with DMEM and trypsinized. Cells were resuspended in DMEM, 5% FBS, and antibiotics, and a cell count was obtained. PAEC and PSMC were seeded at 2.5×10^5 cells/well of 6-well tissue culture plates; stimulated for 24 hours in DMEM, 5% FBS, and antibiotics with or without antisense oligomers (10^−6 mol/L) and starved for 48 hours in DMEM, 0.1% FBS, and antibiotics with or without antisense oligomers (10^−6 mol/L daily) with or without 17βE (10^−8 mol/L). Cells were harvested by trypsinization and resuspended in DMEM, 1% FBS, and antibiotics at a concentration of 5×10^5 cells/mL. Fifty μL of this cell suspension with or without antisense oligomers (10^−6 mol/L) treated with or without 17βE (10^−8 mol/L) was added in the higher-chamber of the modified Boyden chamber apparatus, and the lower chamber was filled with DMEM, 1% FBS, antibiotics plus the desired concentration of agonist either 17βE (10^−8 mol/L) or platelet-derived growth factor-BB (PDGF-BB). The 2 sections of the system were separated by a porous polycarbonate filter (5-μm pores size), pretreated with a gelatine solution (1.5 mg/mL), and assembled. Five hours postincubation at 37° C., the non-migrated cells were scraped with a plastic policeman, and the migrated cells were stained using a Quick-Diff solution (Shandon Inc). The filter was then mounted on a glass slide, and migrated cells were counted using a microscope adapted to a video camera to obtain a computer-digitized image.

| SMILES | inhibition of p38 MAPK phosphorylation induced by a 30 minutes treatment with 17βE (p38 MAPK) | reversal of the anti-chemotactic effect of 17βE on PSMC [1] | time of maximum stimulation of p38 MAPK phosphorylation (p38 MAPK; 17βE 10^−8M) | increase of p38 MAPK phosphorylation (p38 MAPK; 17βE 10^−8 mol/L, 30 minutes, Example 2) | inhibition of the chemotactic effect of PDGF-BB (10 ng/mL) on PSMC ([1]; 17βE 1^−8 mol/L as printed, Example 2) | inhibition of the chemotactic effect of PDGF-BB (10 ng/ml) on PSMC ([1]; 17βE 10^−8M, Example 1) |
| --- | --- | --- | --- | --- | --- | --- |
| CC/C(=C(\c1ccccc1)c1ccc(OCCN(C)C)cc1)c1ccccc1 [Tam, Tamoxifen] | 84% | reversed completely |  |  |  |  |
| C[C@]12CC[C@@H]3c4ccc(O)cc4CC[C@H]3[C@@H]1CC[C@@H]2O [17βE, 17-beta-estradiol] |  |  | 30 min | 254% | inhibited completely | inhibited completely |
| CC/C(=C(\c1ccc(O)cc1)c1ccc(OCCN(C)C)cc1)c1ccccc1 [4-OHT, 4-OH-Tamoxifen] | 81% | reversed completely |  |  |  |  |
| O=C(c1ccc(OCN2CCCCC2)cc1)c1c(-c2ccc(O)cc2)sc2cc(O)ccc12 [Ral, Raloxifen] | 98% | reversed completely |  |  |  |  |
